Measured values: US11491192B2, “Treatment and prevention of pathogenic bacterial overgrowth using butyrate-producing bacteria” (THE CLEVELAND CLINIC FOUNDATION, priority 2018, dated 2022)

How the values were obtained:
C. difficile = assay: Brucella broth dilution MIC of common antibiotics; assay type: cell-based, Clostridium difficile; settings: unit assumed
F. prausnitzii = assay: Brucella broth dilution MIC of common antibiotics; assay type: cell-based, Faecalibacterium prausnitzii; settings: unit assumed
Method: This strain was chosen because it was isolated from human feces, and based on its ability to hydrolyze PS, yield butyrate, and utilize lactate. Belenguer et al., Applied Environmental Microbiology, 72:3593-3599 (2006) Bacteria was grown in conditions and medium as recommended by ATCC, briefly at 37° C. in anaerobic gas biological mix of 80% nitrogen, 10% carbon dioxide, 10% hydrogen, ATCC pre-reduced chopped meat broth (ATCC 1703). Overnight culture of FP was lyophilized on […] system and reconstituted in pre-reduced sterile phosphate buffered saline (PBS) just prior to treatment. Brucella broth dilution MIC of common antibiotics for FP and CD strains were determined using standard methods for susceptibility testing of anaerobic bacteria (Table 1).

[1] = system: sodium-coupled butyrate transporter, butyrate receptor, tight junction proteins and NHE3; settings: supplementation during broad spectrum antibiotic treatment in mice; Cresci et al. 2013; cited from earlier work
[2] = Brucella broth dilution, CD strain used in this study (VA17)
[3] = Brucella broth dilution, FP strain used in this study (ATCC 27766)

| Compound | C. difficile MIC (C. difficile; [2]) [µg/mL] | F. prausnitzii MIC (F. prausnitzii; [3]) [µg/mL] | further results |
| --- | --- | --- | --- |
| CCC[C@@H]1C[C@@H](C(=O)N[C@@H]([C@H]2O[C@H](SC)[C@H](O)[C@@H](O)[C@H]2O)[C@H](C)Cl)N(C)C1 [Clindamycin] | 500 |  |  |
| Cc1ncc([N+](=O)[O-])n1CCO [Metronidazole] | < 2 | < 2 |  |
| CCCC(=O)OCC(COC(=O)CCC)OC(=O)CCC [tributyrin] |  |  | intestinal losses of sodium-coupled butyrate transporter, butyrate receptor, tight junction proteins and NHE3 [1]: protects against intestinal losses |
| CN[C@H](CC(C)C)C(=O)N[C@H]1C(=O)N[C@@H](CC(N)=O)C(=O)N[C@H]2C(=O)N[C@H]3C(=O)N[C@H](C(=O)N[C@H](C(=O)O)c4cc(O)cc(O)c4-c4cc3ccc4O)[C@H](O)c3ccc(c(Cl)c3)Oc3cc2cc(c3O[C@@H]2O[C@H](CO)[C@@H](O)[C@H](O)[C@H]2O[C@H]2C[C@](C)(N)[C@H](O)[C@H](C)O2)Oc2ccc(cc2Cl)[C@H]1O [Vancomycin] |  |  | F. prausnitzii MIC (F. prausnitzii): < 2 µg/mL; C. difficile MIC (C. difficile): < 2 µg/mL |
| Piperacillin/Tazaba | 15.6 | 8 |  |
| CO[C@@]1(NC(=O)Cc2cccs2)C(=O)N2C(C(=O)O)=C(COC(N)=O)CS[C@@H]21 [Cefoxitin] | 250 | < 2 |  |
